# From patent US6696451B1 (dated 2004)
smiles,measurement,value
COC(=O)C1=C(C)NC(c2ncccc2F)=NC1c1ccc(F)cc1 (stereo not drawn),melting point,127 to 129 °C
CCOC(=O)C1=C(C)NC(c2ncccc2F)=NC1c1ccc(Cl)cc1 (stereo not drawn),melting point,133 to 134 °C
COC(=O)C1=C(C)NC(c2ncccc2F)=NC1c1ccccc1 (stereo not drawn),melting point,110 to 111 °C
CCOC(=O)C1=C(C)NC(c2ncccc2F)=NC1c1c(F)cccc1F (stereo not drawn),melting point,140 to 142 °C
COC(=O)C1=C(C)NC(c2ncccc2F)=NC1c1ccccc1C(F)(F)F (stereo not drawn),melting point,165 to 167 °C
COC(=O)C1=C(C)NC(c2ncccc2F)=NC1c1c(Cl)cccc1Cl (stereo not drawn),melting point,180 to 182 °C
CCOC(=O)C1=C(C)NC(c2ncccc2F)=NC1c1c(Cl)cccc1Cl (stereo not drawn),melting point,148 to 149 °C
COC(=O)C1=C(C)NC(c2ncccc2F)=NC1c1ccc(F)cc1Cl (stereo not drawn),melting point,121 to 123 °C
COC(=O)C1=C(C)NC(c2ccc(C(F)(F)F)cn2)=NC1c1ccccc1Cl (stereo not drawn),melting point,121 to 123 °C
CCOC(=O)C1=C(C)NC(c2ncccc2Cl)=NC1c1ccccc1Cl (stereo not drawn),melting point,138 to 140 °C
COC(=O)C1=C(C)NC(c2ccc(Cl)cn2)=NC1c1ccccc1Cl (stereo not drawn),melting point,163 to 165 °C
C=CCOC(=O)C1=C(C)NC(c2ncccc2F)=NC1c1ccccc1Cl (stereo not drawn),melting point,124 to 126 °C
CC1=C(C(=O)OCCOc2ccccc2)C(c2ccccc2Cl)N=C(c2ncccc2F)N1 (stereo not drawn),melting point,123 to 125 °C
CCOC(=O)C1=C(C)NC(c2ncccc2F)=NC1c1ccc(I)cc1 (stereo not drawn),melting point,145 to 146 °C
COC(=O)C1=C(C2CC2)NC(c2ncccc2F)=NC1c1ccccc1Cl (stereo not drawn),melting point,120 to 122 °C
COC(=O)C1=C(C)NC(c2ncccc2Cl)=NC1c1ccccc1Cl (stereo not drawn),melting point,144 to 146 °C
COC(=O)C1=C(C)NC(c2ncccc2F)=NC1c1ccc(Cl)c([N+](=O)[O-])c1 (stereo not drawn),melting point,135 to 137 °C
COC(=O)C1=C(C)NC(c2ncccc2F)=NC1c1ccccc1Br (stereo not drawn),melting point,143 to 144 °C
COC(=O)C1=C(C)NC(c2ncccc2F)=NC1c1ccc(Br)cc1 (stereo not drawn),melting point,156 to 157 °C
CCOC(=O)C1=C(C)NC(c2ncccc2F)=NC1c1ccc(Br)cc1 (stereo not drawn),melting point,134 to 135 °C
CCOC(=O)C1=C(C)NC(c2ncccc2F)=NC1c1ccc(O)cc1Cl (stereo not drawn),melting point,247 to 248 °C
CCOC(=O)C1=C(C)NC(c2ncccc2F)=NC1c1ccc(F)cc1 (stereo not drawn),melting point,129 to 130 °C
CCOC(=O)C1=C(C)NC(c2ncccc2Cl)=NC1c1ccc(Br)cc1F (stereo not drawn),melting point,126 to 127 °C
CCOC(=O)C1=C(C)NC(c2ncccc2F)=NC1c1ccc(Br)cc1F (stereo not drawn),melting point,156 to 158 °C
CCOC(=O)C1=C(C)NC(c2ncccc2F)=NC1c1ccc(Cl)cc1F (stereo not drawn),melting point,162 to 163 °C
CCOC(=O)C1=C(C)NC(c2ncccc2F)=NC1c1ccc(F)cc1C (stereo not drawn),melting point,167 to 169 °C
CCOC(=O)C1=C(C)NC(c2ncccc2F)=NC1c1ccccc1I (stereo not drawn),melting point,163 to 164 °C
COC(=O)C1=C(C)NC(c2ncccc2F)=NC1c1ccc(Cl)cc1F (stereo not drawn),melting point,120 to 122 °C
COC(=O)C1=C(C)NC(c2ncccc2Cl)=NC1c1ccc(Br)cc1F (stereo not drawn),melting point,103 to 104 °C
COC(=O)C1=C(C)NC(c2ncccc2F)=NC1c1ccccc1Cl.Cl (stereo not drawn),melting point,210 to 212 °C
CC(=O)C1=C(C)NC(c2ncccc2F)=NC1c1ccccc1Cl (stereo not drawn),melting point,132 to 133 °C
COC(=O)C1=C(C)NC(c2ncccc2Cl)=NC1c1ccc(F)cc1Cl (stereo not drawn),melting point,95 to 96 °C
COC(=O)C1=C(C)NC(c2ncccc2Cl)=NC1c1ccccc1Br (stereo not drawn),melting point,131 to 132 °C
CCOC(=O)C1=C(C)NC(c2ncccc2Cl)=NC1c1ccccc1Br (stereo not drawn),melting point,137 to 138 °C
COC(=O)C1=C(C)NC(c2ncccc2F)=NC1c1ccc([N+](=O)[O-])cc1 (stereo not drawn),melting point,142 to 143 °C
CCOC(=O)C1=C(C)NC(c2ncccc2F)=NC1c1ccc(Cl)cc1[N+](=O)[O-] (stereo not drawn),melting point,184 to 186 °C
CCOC(=O)C1=C(C)NC(c2ncccc2F)=NC1c1cc(Cl)cc(Cl)c1 (stereo not drawn),melting point,133 to 134 °C
COC(=O)C1=C(C)NC(c2ncccc2F)=NC1c1cc([N+](=O)[O-])c(Cl)cc1F (stereo not drawn),melting point,135 to 136 °C
COC(=O)C1=C(C)NC(c2ccc(F)cn2)=NC1c1ccc(F)cc1Cl (stereo not drawn),melting point,131 °C
CCOC(=O)C1=C(C)NC(c2ccc(F)cn2)=NC1c1ccc(F)cc1Cl (stereo not drawn),melting point,124 °C
CCOC(=O)C1=C(C)NC(c2ccc(OC)cn2)=NC1c1ccc(F)cc1Cl (stereo not drawn),melting point,141 °C
COC(=O)C1=C(C)NC(c2cc(OC)ccn2)=NC1c1ccc(F)cc1Cl (stereo not drawn),melting point,132 °C
COC(=O)C1=C(C)NC(c2cccc(C)n2)=NC1c1ccccc1Cl (stereo not drawn),melting point,142 to 143 °C
COC(=O)C1=C(C)NC(c2ncccc2F)=NC1c1ccc(Cl)cc1 (stereo not drawn),melting point,139 to 140 °C
COC(=O)C1=C(C)NC(c2ncccc2F)=NC1c1cccc2ncc(-c3ccccc3)cc12 (stereo not drawn),melting point,174 to 175 °C
